PMC7058016, “Photoinduced damage of AsLOV2 domain is accompanied by increased singlet oxygen production due to flavin dissociation” (Scientific Reports, 2020)

Molecular target: T1, AsLOV2 (Avena sativa, UniProt O49003, C450A)
T1 construct: gene NPH1-1; LOV2 domain, residues 404-547, N-terminal His10-tag kept (first 31 residues not native), E. coli BL21(DE3)
Assay: co-purified holoprotein; absorption and fluorescence spectra, FMN triplet lifetime, […] kDa filtration
Format: binding
Conditions: 20 mM Tris-HCl pH 7.8, room temperature; before irradiation; no covalent adduct possible

T1 sequence (O49003 entry or part of it C450A): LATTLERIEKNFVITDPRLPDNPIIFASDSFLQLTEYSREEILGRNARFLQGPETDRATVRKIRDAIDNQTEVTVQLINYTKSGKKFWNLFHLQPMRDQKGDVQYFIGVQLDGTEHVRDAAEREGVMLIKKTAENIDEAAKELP

Cc1cc2nc3c(=O)[nH]c(=O)nc-3n(C[C@H](O)[C@H](O)[C@H](O)COP(=O)(O)O)c2cc1C [flavin mononucleotide]
co-purified holoprotein; absorption and fluorescence spectra, FMN triplet lifeti: before irradiation there was no free FMN detected in the filtrate
